Data on 5 compounds can be found in ChEMBL document CHEMBL1201862, “PubChem BioAssay data set” (2004).

Each structure is given as a SMILES string.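 Step 1: Grow cells in 96-well plates. Step 2: Expose to compound for 48 hours at 5 concentrations. Step 3: Interpolate endpoints linearly; if unreached, use highest concentration. GI50 is the concentration that inhibits growth by half.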 The source made the active and inactive calls. Rule as the data show it: active = GI50 up to about 1.1 µM and inactive = higher. Bounds are passed on as bounds.

Some test systems named below: Hs-578T; HCT-15; SF-268; COLO 205; OVCAR-5; UACC-257; MDA-MB-435; OVCAR-8; IGROV-1; K562; UACC-62; 786-0; SF-295; KM12; CCRF-CEM; MDA-MB-231; M14; NCI-H23; SN12C; HOP-92.
Common to all, as to test: DTP human tumour cell line panel, 48 h

`CCOC(=O)c1c(SCCN2CCCC2)n(-c2ccccc2)c(=S)n(-c2ccccc2)c1=O`: the GI50 is 4.7 µM (inactive) with Hs-578T; 2.21 µM with HCT-15; 4.85 µM (inactive) with SF-268; 1.84 µM (inactive) with COLO 205; 26.9 µM (inactive) in the assay with OVCAR-5; 1.69 µM (inactive) with UACC-257. Besides, the GI50 is 2.55 µM (inactive) in the assay with MDA-MB-435; 1.95 µM (inactive) in the assay on OVCAR-8; 2.03 µM (inactive) with IGROV-1; 2.12 µM (inactive) in the assay on K562; 2.79 µM (inactive) in the assay on UACC-62; 1.55 µM (inactive) in the assay on 786-0. The GI50 in the assay with SF-295 was 28.3 µM (inactive); with KM12 it was 15.8 µM (inactive); in the assay with CCRF-CEM, 0.951 µM (active); in the assay with MDA-MB-231, 2.08 µM (inactive); in the assay with M14, 1.75 µM (inactive); in the assay with NCI-H23, 9.57 µM (inactive). The GI50 was 1.71 µM (inactive) in the assay on SN12C and 1.6 µM (inactive) with HOP-92.

In the case of `c1ccc(Nc2nnc(Cn3ccc4ccccc43)s2)cc1`, the GI50 in the assay on Hs-578T was 65.6 µM (inactive); with HCT-15, 38.5 µM; with SF-268 it was 56.8 µM (inactive); with COLO 205, 45.1 µM (inactive); in the assay on OVCAR-5, > 100 µM (inactive); with UACC-257, > 100 µM (inactive). Moreover, the GI50 in the assay on MDA-MB-435 was 83.2 µM (inactive); in the assay with OVCAR-8 it was 64.6 µM (inactive); in the assay with IGROV-1, 46.9 µM (inactive); in the assay on K562, 31.2 µM (inactive); with UACC-62, 88.5 µM (inactive); with 786-0, 52.7 µM (inactive). Moreover, the GI50 is 15.9 µM (inactive) in the assay on SF-295; 34.5 µM (inactive) with KM12; 49.3 µM (inactive) in the assay with CCRF-CEM; 38.3 µM (inactive) in the assay on MDA-MB-231; 59.8 µM (inactive) in the assay with M14; > 100 µM (inactive) in the assay with NCI-H23. Further, the GI50 was > 100 µM (inactive) in the assay on SN12C and 54.7 µM (inactive) in the assay on HOP-92.

`O=C(OCC1CCCN2CCCCC12)c1ccncc1` (stereo not given): the GI50 with Hs-578T is > 100 µM (inactive); in the assay on HCT-15, > 100 µM; in the assay on SF-268 it was > 100 µM (inactive); in the assay on COLO 205, > 100 µM (inactive); with OVCAR-5, > 100 µM (inactive); in the assay on UACC-257, > 100 µM (inactive). The GI50 in the assay on MDA-MB-435, in the assay on OVCAR-8, in the assay with IGROV-1, in the assay on K562, in the assay with UACC-62 and in the assay with 786-0 was > 100 µM (inactive) each time. Also, the GI50 in the assay with SF-295, with KM12, in the assay with CCRF-CEM, in the assay with MDA-MB-231, in the assay with M14 and in the assay with NCI-H23 was > 100 µM (inactive) in each case. For the same compound, the GI50 with SN12C and in the assay on HOP-92 was > 100 µM (inactive) in each case.

`CC1=CC2(O)OC3(CC2=C(C)C)C(C)CCC13` (stereo not given): the GI50 with Hs-578T is > 100 µM (inactive); in the assay on HCT-15 it was > 100 µM; in the assay on SF-268, > 100 µM (inactive); with COLO 205 it was > 100 µM (inactive); in the assay with OVCAR-5, > 100 µM (inactive); in the assay with UACC-257 it was > 100 µM (inactive). The GI50 in the assay on MDA-MB-435, with OVCAR-8, in the assay on IGROV-1, with K562, in the assay with UACC-62 and in the assay on 786-0 was > 100 µM (inactive) throughout. The GI50 with SF-295, in the assay on KM12, in the assay with CCRF-CEM, in the assay with MDA-MB-231, in the assay with M14 and with NCI-H23 was > 100 µM (inactive) in each case. Further, the GI50 with SN12C and with HOP-92 was > 100 µM (inactive) in each case.

On to `C/C(=N\NC(N)=S)c1ccccn1.OB(O)c1ccccc1`, for which the GI50 in the assay with Hs-578T was > 100 µM (inactive); in the assay with HCT-15, 2.84 µM; with SF-268, 2.67 µM (inactive); with COLO 205, 3.85 µM (inactive); with OVCAR-5, 6.05 µM (inactive); with UACC-257, 4.47 µM (inactive). Moreover, the GI50 is 7.55 µM (inactive) in the assay on MDA-MB-435; 3.63 µM (inactive) with OVCAR-8; 4.46 µM (inactive) in the assay on IGROV-1; 3.61 µM (inactive) with K562; 3.25 µM (inactive) in the assay with UACC-62; 3.73 µM (inactive) with 786-0. Besides, the GI50 with SF-295 is 7.05 µM (inactive); in the assay on KM12, 7.45 µM (inactive); with CCRF-CEM, 2.18 µM (inactive); with MDA-MB-231 it was 7.16 µM (inactive); in the assay with M14, 2.98 µM (inactive); in the assay on NCI-H23, 11.3 µM (inactive). Further, the GI50 is 3.52 µM (inactive) with SN12C and 10.4 µM (inactive) in the assay with HOP-92.

The term GI50 denotes the concentration at which growth is held to half of that of the control.
